# Results as given in patent US7413853B2, “Modulation of metabolism of steroids and xenobiotics” (The Salk Institute for Biological Studies, priority 2001, dated 2008).
# “Also recorded” adds a separate entry of the source. Like-named read-outs stand apart in the source and are kept apart here.
# Tests used:
# [1] = tested on: rat CYP3A23 gene cellular promoter
# Description: The PCR-amplified sequences and target mutagenesis were confirmed by DNA sequencing.
# (§1) All compounds were purchased from Sigma.
# The above notion would predict: (1) The SXR/PXR response element is essential for the activation of CYP3A genes; and (2) The response elements of SXR and PXR are interchangeable. Therefore, mutagenesis analysis was performed on the promoter of the rat CYP3A23 gene to examine these predictions.
# [2] = tested on: SXR; test: Activation of SXR in transfection-based assays; design: activation of SXR: dose or concentration left out as unconfirmed
# Description: To characterize its response properties, a large variety of steroids, including intermediate and major products of known steroid biosynthetic pathways were tested.
# [3] = target: T1, GR (Homo sapiens, UniProt P04150); test: Activity of corticosterone catabolites on GR; type: cell-based; conditions: reduced or hydroxylated corticosterone derivatives
# T1 sequence (P04150 1-777): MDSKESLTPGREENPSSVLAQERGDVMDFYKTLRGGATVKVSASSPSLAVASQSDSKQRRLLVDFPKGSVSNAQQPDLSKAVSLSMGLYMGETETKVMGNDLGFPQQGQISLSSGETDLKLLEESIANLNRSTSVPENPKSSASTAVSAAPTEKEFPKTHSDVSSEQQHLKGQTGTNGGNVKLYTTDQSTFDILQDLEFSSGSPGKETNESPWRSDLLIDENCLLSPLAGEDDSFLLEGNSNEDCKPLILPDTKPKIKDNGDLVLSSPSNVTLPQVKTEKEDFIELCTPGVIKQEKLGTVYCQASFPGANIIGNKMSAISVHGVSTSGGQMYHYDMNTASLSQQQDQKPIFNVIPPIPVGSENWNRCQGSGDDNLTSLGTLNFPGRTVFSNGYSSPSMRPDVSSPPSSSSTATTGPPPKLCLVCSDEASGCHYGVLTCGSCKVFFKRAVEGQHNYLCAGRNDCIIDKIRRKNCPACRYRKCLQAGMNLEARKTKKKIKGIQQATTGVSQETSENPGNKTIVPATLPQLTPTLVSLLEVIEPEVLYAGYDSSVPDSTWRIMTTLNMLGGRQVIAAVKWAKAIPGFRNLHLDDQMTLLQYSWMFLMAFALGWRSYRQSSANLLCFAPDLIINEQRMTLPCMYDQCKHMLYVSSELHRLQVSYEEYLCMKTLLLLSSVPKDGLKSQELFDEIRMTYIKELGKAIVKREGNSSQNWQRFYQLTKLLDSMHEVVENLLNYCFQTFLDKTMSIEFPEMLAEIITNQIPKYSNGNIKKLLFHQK
# [4] = target: T2, SXR (Homo sapiens, UniProt O75469); test: Activation of SXR by thiazolidinediones in hepatocyte cultures and transgenic animals
# T2 sequence (O75469 1-434): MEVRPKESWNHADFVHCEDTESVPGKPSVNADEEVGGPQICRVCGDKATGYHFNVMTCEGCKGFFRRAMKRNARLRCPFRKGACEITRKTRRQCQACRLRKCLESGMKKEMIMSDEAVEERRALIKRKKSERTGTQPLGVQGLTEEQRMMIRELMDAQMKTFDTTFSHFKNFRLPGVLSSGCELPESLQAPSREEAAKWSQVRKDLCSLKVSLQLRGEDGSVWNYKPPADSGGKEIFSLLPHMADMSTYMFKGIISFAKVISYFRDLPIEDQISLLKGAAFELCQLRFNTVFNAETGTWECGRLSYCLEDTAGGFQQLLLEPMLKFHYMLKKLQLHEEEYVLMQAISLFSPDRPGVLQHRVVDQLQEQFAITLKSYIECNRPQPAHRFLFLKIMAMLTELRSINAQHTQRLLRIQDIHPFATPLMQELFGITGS
# Description: as §1
# The animals were allowed free access to food and water at all times. […] When necessary, mice were treated with a single intraperitoneal injection of DEX (50 mg/kg), PCN (40 mg/kg), or CTZ (50 mg/kg).
# [5] = target: T3, CAR (Mus musculus, UniProt O35627); test: tk-UGT1A6/DR-3 luciferase reporter transfected into CV-1 cells with CAR expression vector; type: cell-based; conditions: tk-UGT1A6/DR-3-Luc
# T3 construct: expressed in transfected cells; host or cells: monkey kidney CV-1 cells
# T3 sequence (O35627 1-358): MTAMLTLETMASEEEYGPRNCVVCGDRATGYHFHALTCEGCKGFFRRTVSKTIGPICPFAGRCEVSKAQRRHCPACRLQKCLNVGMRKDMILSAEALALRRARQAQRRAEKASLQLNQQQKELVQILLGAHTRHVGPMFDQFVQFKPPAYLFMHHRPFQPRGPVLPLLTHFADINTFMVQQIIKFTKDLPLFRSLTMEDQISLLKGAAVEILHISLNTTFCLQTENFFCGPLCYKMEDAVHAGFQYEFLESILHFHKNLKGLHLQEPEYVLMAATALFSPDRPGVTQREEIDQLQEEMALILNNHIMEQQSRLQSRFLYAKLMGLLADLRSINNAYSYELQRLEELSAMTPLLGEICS
# Source text: The reporter gene comprises a thymadine kinase (TK) linked to UGT1A6/DR-3 linked to a luciferace (LUC).
# In an exemplary assay, a luciferase reporter gene containing the UGT1A6/DR-3 upstream of a minimal thymidine kinase (tk) promoter was constructed and transfected into monkey kidney CV-1 cells together with expression vectors for SXR, PXR, or CAR.
# In FIG. 2, the tk-UGT1A6/DR3-Luc construct comprises a UGT inverted or direct repeat and/or a nuclear receptor binding site such that activation of the response element results in transcription of UGT. […] The response element can also comprise an inverse repeat of a suitable half site separated by a 6 nucleotide spacer, or an inverse repeat of a variant thereof, separated by a 6 nucleotide spacer.
# [6] = target: T4, PXR (Mus musculus, UniProt O54915)
# T4 sequence (O54915 1-431): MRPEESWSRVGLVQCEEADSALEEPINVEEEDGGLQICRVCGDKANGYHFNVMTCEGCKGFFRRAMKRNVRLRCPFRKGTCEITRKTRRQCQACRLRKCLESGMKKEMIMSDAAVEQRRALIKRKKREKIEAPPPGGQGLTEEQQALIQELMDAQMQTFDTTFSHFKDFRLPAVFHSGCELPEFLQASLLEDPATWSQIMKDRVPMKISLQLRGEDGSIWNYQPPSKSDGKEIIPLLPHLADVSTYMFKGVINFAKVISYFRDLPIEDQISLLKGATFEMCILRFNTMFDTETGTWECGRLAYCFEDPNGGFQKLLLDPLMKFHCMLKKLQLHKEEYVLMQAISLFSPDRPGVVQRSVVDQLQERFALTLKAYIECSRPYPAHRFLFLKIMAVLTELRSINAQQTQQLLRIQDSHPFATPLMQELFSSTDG
# [7] = target: T4, PXR; test: Activation of mouse receptor PXR by the panel of compounds
# [8] = clinical trials, 2510 patients; alanine aminotransferase level > three times the upper limit of normal; cited from earlier work
# [9] = transfection-based assays, steroids tested
molecule,measurement,setting,value
"Cc1ccc2cc3c(ccc4ccccc43)c3c2c1CC3 [3MC, 3-methylcholanthrene]",activation of CYP3A23 cellular promoter reporter,[1],fail to activate or behave as poor activators
C[C@]12CCC(=O)C[C@@H]1CC[C@@H]1[C@@H]2[C@@H](O)C[C@]2(C)[C@@H](C(=O)CO)CC[C@@H]12 [5α],activation of SXR by products of steroid catabolism,[2],effective SXR activators
same,activity on GR,[3],slightly active
C[C@]12CCC(=O)C[C@H]1CC[C@@H]1[C@@H]2[C@@H](O)C[C@]2(C)[C@@H](C(=O)CO)CC[C@@H]12 [5β],activation of SXR by products of steroid catabolism,[2],effective SXR activators
same,activity on GR,[3],completely inactive
C[C@]12C[C@H](O)[C@H]3[C@@H](C[C@@H](O)C4=CC(=O)CC[C@@]43C)[C@@H]1CC[C@@H]2C(=O)CO [6β-hydroxy corticosterone],activation of SXR by products of steroid catabolism,[2],virtually inactive; also recorded: virtual inactivity
same,activity on GR,[3],slightly active
"CN(CCOc1ccc(CC2SC(=O)NC2=O)cc1)c1ccccn1 (stereo not drawn) [BRL, Rosiglitazone]",activation of SXR by TZDs,[4]; hepatocyte cultures and transgenic animals,fail to activate SXR
"CC/C(=C(/CC)c1ccc(O)cc1)c1ccc(O)cc1 [DES, diethylstilbestrol]",activation of SXR by compounds known to induce CYP3A4,[2],most potent activators
"C[C@]12CC[C@H](O)CC1=CC[C@@H]1[C@@H]2CC[C@]2(C)C(=O)CC[C@@H]12 [DHEA, dehydroepiandrosterone]","SXR activation of DR-3, DR-4 and DR-5 elements",[2],intermediate group
"Clc1cnc(Oc2ccc(Oc3ncc(Cl)cc3Cl)cc2)c(Cl)c1 [TCPOBOP, 1,4-bis[2-(3,5-dichloropyridyloxy)] benzene]",effect on CAR activation of UGT reporter,[5],potentiated
C[C@]12CCC(=O)C=C1CC[C@@H]1[C@@H]2[C@@H](O)C[C@]2(C=O)[C@@H](C(=O)CO)CC[C@@H]12 [aldosterone],activation of SXR,[2],inactive
same,"SXR activation of DR-3, DR-4 and DR-5 elements",[2]; series of transfections,little response
C[C@@]12CCC[C@H]1[C@@H]1CC[C@H]3C[C@@H](O)CC[C@]3(C)[C@H]1CC2 [androstanol],effect on CAR activation of UGT reporter,[5],inhibited
C[C@]12C[C@H](O)[C@H]3[C@@H](CCC4=CC(=O)CC[C@@]43C)[C@@H]1CC[C@@H]2C(=O)CO [corticosterone],activation of SXR by compounds known to induce CYP3A4,[2],most potent activators
same,"SXR activation of DR-3, DR-4 and DR-5 elements",[2]; series of transfections,among the best activators
same,activation of SXR,[2]; [9],most potent and efficacious activator; also recorded: activated; also recorded: strongest known activator
C[C@]12CCC(=O)C=C1CC[C@@H]1[C@@H]2[C@@H](O)C[C@@]2(C)[C@H]1CC[C@]2(O)C(=O)CO [cortisol],"SXR activation of DR-3, DR-4 and DR-5 elements",[2]; series of transfections,little response
C[C@]12CCC(=O)C=C1CC[C@@H]1[C@@H]2C(=O)C[C@@]2(C)[C@H]1CC[C@]2(O)C(=O)CO [cortisone],"SXR activation of DR-3, DR-4 and DR-5 elements",[2]; series of transfections,intermediate group
O=c1oc2cc(O)ccc2c2oc3cc(O)ccc3c12 [coumestrol],activation of SXR by compounds known to induce CYP3A4,[2],most potent activators
C[C@]12CCC(=O)C[C@@H]1CC[C@@H]1[C@@H]2CC[C@]2(C)[C@@H](O)CC[C@@H]12 [dihydrotestosterone],"SXR activation of DR-3, DR-4 and DR-5 elements",[2],among the best activators
same,activation of SXR,[2],remarkably effective activators
"C[C@]12CC[C@@H]3c4ccc(O)cc4CC[C@H]3[C@@H]1CC[C@@H]2O [estradiol, 17β-estradiol]",activation of SXR by compounds known to induce CYP3A4,[2],most potent activators
same,"SXR activation of DR-3, DR-4 and DR-5 elements",[2]; series of transfections,among the best activators
same,activation of SXR,[2]; [9],remarkably effective activators
same,induction of CYP3A23 cellular promoter reporter,[1],significant induction
same,activation of PXR,[6],similarly activated
CCC1(c2ccccc2)C(=O)NC(=O)NC1=O [phenobarbital],activation of CYP3A23 cellular promoter reporter,[1],fail to activate or behave as poor activators
same,induction of CYP3A23 cellular promoter reporter,[1],significant induction
CC(=O)[C@H]1CC[C@H]2[C@@H]3CC=C4C[C@@H](O)CC[C@]4(C)[C@H]3CC[C@]12C [pregnenolone],"SXR activation of DR-3, DR-4 and DR-5 elements",[2]; series of transfections,among the best activators
same,activation of CYP3A23 cellular promoter reporter,[1],fail to activate or behave as poor activators
same,induction of CYP3A23 cellular promoter reporter,[1],significant induction
CC(=O)[C@H]1CC[C@H]2[C@@H]3CCC4=CC(=O)CC[C@]4(C)[C@H]3CC[C@]12C [progesterone],"SXR activation of DR-3, DR-4 and DR-5 elements",[2]; series of transfections,among the best activators
same,activation of SXR,[2]; [9],activated
C[C@]12CC[C@H]3[C@@H](CCC4=CC(=O)CC[C@@]43C)[C@@H]1CC[C@@H]2O [testosterone],activation of SXR,[2],activated
same,activation of PXR,[7],similarly activated
Cc1c(C)c2c(c(C)c1O)CCC(C)(COc1ccc(CC3SC(=O)NC3=O)cc1)O2 (stereo not drawn) [troglitazone],activation of SXR by TZDs,[4],activate SXR
same,"troglitazone-induced hepatotoxicity, share of patients",[8],1.9%
estrogen,activation of SXR,[2]; [9],activated
